In patent US11471460B2, “Autophagy modulators for use in treating cancer” (The United States of America,as represented by the …, priority 2017, dated 2022):
“Also recorded” adds a separate entry of the source.

Assays:
[1] = tested on: melanoma A375 cells; experiment: A375 cell proliferation (crystal violet plate assay); format: cell-based, human
[2] = tested on: 468 human kinases; experiment: DiscoverX KINOMEscan profile at 10 μM; format: binding; details: panel of 468 human kinases
Description: (§1) Each kinase was tagged with a unique DNA sequence that allowed the amount of protein bound to the solid support to be quantified by PCR. The top three targets for compound 1 were PIKFYVE, PIP4K2C and MTOR. […] Dissociation constants (Kd) were determined from the amount of kinase captured on the solid support as a function of the test compound concentration (nM) on a log10 scale. Mean Kd values (±range) are given for each compound. The ratio of PIP4K2C to PIKFYVE indicates the relative specificity for these two kinases.
(§2) To address this hypothesis, a panel of 468 human kinases were screened for their ability to bind compound 1. […] The top two candidates were PIKFYVE (phosphoinositide kinase FYVE-type zinc finger containing) and PIP4K2C (phosphatidylinositol-5-phosphate 4-kinase). PIKFYVE is a kinase that is essential for mouse development (49) and that prevents endosome enlargement and cytoplasmic vacuolization (50, 51). PIP4K2C is a kinase that is not essential for mouse growth and viability, but it is essential for the immune system (52), mTORC1 signaling (53), and regulation of autophagy (54). The third candidate was MTOR, a kinase that regulates autophagy (55). Therefore, the binding constants (Kd) for all five members of the compound 1-family were determined for each of these three proteins from two independent titration curves, as shown for compound 1.

[3] = tested on: osteosarcoma U2OS cells; experiment: U2OS cell viability (cellular ATP); format: cell-based, human
From the text: (§3) These effects are dependent on the compound selected, its concentration and the length of time cells are exposed to the compound.

[4] = Viability of A375 cells after pretreatment, trypan blue exclusion; format: cell-based; details: human, A375 melanoma cells, vehicle 94%, read-out: Viable cells after pretreatment
From the text: (§4) Viability was quantified by trypan blue dye exclusion method. The images confirmed the presence of cytoplasmic vacuolization occurred only in the compound 1 treated cells. […] The left flank received cells pretreated with vehicle and the right flank received cells pretreated with compound 1. At 27 days later, mice were photographed, and tumors excised. […] Error bars indicate the SEM for 5 tumors.
(§5) To determine whether or not compound 1 could inhibit progression of a tumor that arose from autophagy-dependent cancer cells, melanoma A375 cells were pretreated with either vehicle or compound 1 and then assayed for their ability to produce a tumor. Pretreatment consisted of culturing A375 cells for 8 hours with 10 μM compound 1. The cells were then recovered by trypsinization and their viability confirmed by trypan blue exclusion. […] The cells were then inoculated subcutaneously into the flanks of immuno-compromised mice.

[5] = tested on: osteosarcoma U2OS cells; experiment: U2OS cell proliferation; format: cell-based, human
From the text: as §3
Cells were obtained from the American Type Culture Collection. BORCS5-KO HeLa cells have been described previously. Osteosarcoma U2OS were routinely seeded in 6-well plates (0.5×10^5 cells/well) and cultured in Dulbecco's Modified Eagle's medium supplemented with L-Glutamine, 4.5 g/L Glucose, Sodium Pyruvate, Phenol Red, and either heat-inactivated or normal 10% fetal calf serum at 37° C. in 5% CO2. Approximately 15-19 hours later, the indicated compound was added in 1:1000 dilutions. Results were the same using either heat-inactivated or normal fetal calf serum. Melanoma A375, embryonic kidney 293T and human foreskin fibroblast Hs27 cells were cultured in the same medium, except that cells were seeded into 12-well plates at 10^3 cells/well.

[6] = tested on: U2OS cells; experiment: Tandem sensor RFP-GFP-LC3B: fraction of yellow (neutral pH) puncta; format: cell-based, human; details: 1 μM, 4 hrs
Description: Confocal microscopic images are shown in FIG. 12A of U2OS cells expressing a modified tandem sensor RFP-GFP-tagged LC3B protein in which the green signal from a mutated GFP was suppressed in an acidic environment, with little or no effect on the red signal from RFP. Thus, autophagosomes with neutral pH would fluoresce yellow, whereas autolysosomes with acidic pH would fluoresce red. These cells were treated with either vehicle or 1 μM compound 1 for 4 hrs. The fraction of yellow puncta, representing autophagosomes with a neutral pH, was quantified in 50 cells from each of three independent experiments (mean±SEM; Student's t-test, p<0.0001) as shown in FIG. 12B. The fraction of yellow puncta increased 4-fold in the presence of compound 1 (right side graph).
To determine whether the accumulation of autophagosomes resulted from induction of autophagy or from disruption of autophagic flux, cells were transfected with a vector expressing a modified tandem sensor RFP-GFP-tagged LC3B protein in which the green signal from a mutated GFP was suppressed in an acidic environment, with little or no effect on the red signal from RFP^41. Therefore, in merged images, only red puncta indicated acidic autolysosomes; yellow puncta indicated either autophagosomes or non-acidic autolysosomes. […]

[7] = target: T1, PIKFYVE (Homo sapiens, UniProt Q9Y2I7); experiment: DiscoverX KINOMEscan dissociation constant; format: binding
T1 construct: purchased DiscoverX (KINOMEscan service, San Diego, Calif.)
T1 sequence (Q9Y2I7 whole entry): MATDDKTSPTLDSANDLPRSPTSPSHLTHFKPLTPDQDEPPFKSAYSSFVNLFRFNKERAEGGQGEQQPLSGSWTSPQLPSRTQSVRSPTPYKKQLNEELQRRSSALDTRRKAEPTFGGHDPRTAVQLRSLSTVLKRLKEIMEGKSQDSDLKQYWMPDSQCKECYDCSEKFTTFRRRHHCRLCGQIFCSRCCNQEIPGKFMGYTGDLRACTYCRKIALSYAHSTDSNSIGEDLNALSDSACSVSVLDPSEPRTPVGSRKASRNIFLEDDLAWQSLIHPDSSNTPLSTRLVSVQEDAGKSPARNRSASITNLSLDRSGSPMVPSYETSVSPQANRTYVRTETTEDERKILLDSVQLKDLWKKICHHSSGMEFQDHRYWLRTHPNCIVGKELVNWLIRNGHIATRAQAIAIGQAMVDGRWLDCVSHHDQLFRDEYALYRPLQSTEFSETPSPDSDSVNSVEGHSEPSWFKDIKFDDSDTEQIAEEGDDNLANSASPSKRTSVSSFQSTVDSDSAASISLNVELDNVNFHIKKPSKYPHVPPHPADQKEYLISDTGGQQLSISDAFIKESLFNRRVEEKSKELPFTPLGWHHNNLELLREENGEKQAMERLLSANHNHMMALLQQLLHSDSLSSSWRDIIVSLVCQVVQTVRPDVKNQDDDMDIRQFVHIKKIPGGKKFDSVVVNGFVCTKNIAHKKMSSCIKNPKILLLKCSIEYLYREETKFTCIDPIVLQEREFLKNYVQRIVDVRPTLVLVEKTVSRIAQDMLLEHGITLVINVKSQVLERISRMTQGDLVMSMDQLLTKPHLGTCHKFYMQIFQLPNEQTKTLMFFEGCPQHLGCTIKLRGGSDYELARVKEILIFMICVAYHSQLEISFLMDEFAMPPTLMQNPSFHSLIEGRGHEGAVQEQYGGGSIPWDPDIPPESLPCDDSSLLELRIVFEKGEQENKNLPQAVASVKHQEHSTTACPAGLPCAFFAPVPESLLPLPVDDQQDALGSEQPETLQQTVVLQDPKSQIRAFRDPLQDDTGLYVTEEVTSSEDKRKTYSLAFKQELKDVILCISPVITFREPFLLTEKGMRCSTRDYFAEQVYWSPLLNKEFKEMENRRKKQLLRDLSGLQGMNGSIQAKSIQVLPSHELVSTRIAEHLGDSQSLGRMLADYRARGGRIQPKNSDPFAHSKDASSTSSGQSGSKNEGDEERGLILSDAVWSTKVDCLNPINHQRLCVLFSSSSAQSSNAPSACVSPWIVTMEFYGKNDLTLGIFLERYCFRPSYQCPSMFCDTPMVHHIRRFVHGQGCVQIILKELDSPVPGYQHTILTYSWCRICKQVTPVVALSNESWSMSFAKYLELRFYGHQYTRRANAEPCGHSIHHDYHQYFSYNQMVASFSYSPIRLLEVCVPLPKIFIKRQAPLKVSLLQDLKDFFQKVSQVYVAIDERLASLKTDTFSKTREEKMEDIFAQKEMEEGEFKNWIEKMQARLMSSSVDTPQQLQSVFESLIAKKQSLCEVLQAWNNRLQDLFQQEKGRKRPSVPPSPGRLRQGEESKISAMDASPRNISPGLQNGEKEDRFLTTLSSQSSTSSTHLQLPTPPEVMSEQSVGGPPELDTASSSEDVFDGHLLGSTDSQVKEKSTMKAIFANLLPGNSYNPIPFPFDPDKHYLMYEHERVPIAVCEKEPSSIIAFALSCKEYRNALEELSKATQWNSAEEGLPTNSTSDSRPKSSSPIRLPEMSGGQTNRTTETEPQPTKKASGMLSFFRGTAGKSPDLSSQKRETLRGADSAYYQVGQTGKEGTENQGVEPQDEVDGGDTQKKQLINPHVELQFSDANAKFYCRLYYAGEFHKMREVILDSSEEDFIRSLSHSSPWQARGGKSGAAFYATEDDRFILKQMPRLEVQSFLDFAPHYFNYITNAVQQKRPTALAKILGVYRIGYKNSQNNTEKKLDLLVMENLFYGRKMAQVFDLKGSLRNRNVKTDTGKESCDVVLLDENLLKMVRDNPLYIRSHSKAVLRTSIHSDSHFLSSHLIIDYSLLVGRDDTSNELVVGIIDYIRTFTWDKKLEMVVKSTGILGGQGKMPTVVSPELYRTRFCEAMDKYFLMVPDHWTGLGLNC
Description: as §1, §2

[8] = tested on: LC3-II and p62 in U2OS cells; experiment: Accumulation of autophagosome markers LC3-II and p62, Western immuno-blotting; format: cell-based, human
Description: Cells were cultured for 4 hrs before total cell extracts were subjected to Western immuno-blotting for LC3, p62 and β-actin. Blot was developed with film. […] (C) U2OS cells were cultured for the times indicated in the presence of 1.2 μM compound 1 to produce 80% of the maximum observed in FIG. 10A. Total cell extracts were assayed at the times indicated. […] All blots were stained with Ponceau S […].
Total cell lysates were prepared (in 4× dye). Proteins were fractionated at 200V in a NuPAGE 4-12% bis-tris polyacrylamide gel (NP0323, Novex) using NuPAGE MES running buffer (NP0002, Novex) and then stained with PageBlue (24260, Thermo Scientific) in order to quantify the relative amount of histones in each sample. […] Proteins were wet-transferred onto nitrocellulose membranes (162-0112, Bio-Rad) using NuPAGE transfer buffer (NP-0006-1, Novex) for 1 hour at 30V. Membranes were then stained with dilute Ponceau S solution, blocked in 5% milk for 30 minutes at room temperature, and incubated overnight at 4° C. in primary antibody. Membranes were washed with phosphate buffered saline with tween 20 (PBST) three times for 10 min. each, incubated with secondary antibodies in 5% milk for 1 hour, washed three times with PBST again, covered in ECL (SuperSignal West Pico chemiluminescent substrate, 34080, Thermo Scientific) and exposed to film (HyBlot ES, E3218, Denville Scientific).

[9] = tested on: melanoma A375 cells; experiment: Tumor formation by pretreated A375 cells in nude mice; format: in vivo
From the text: as §4, §5

Q: For `C1=Nc2ccccc2/C1=C/NNc1nc(Nc2ccccc2)nc(N2CCOCC2)n1` [compound 1], which “Inhibition of proliferation of melanoma A375 cells” value [1] is on record?
A: Its value is “inhibited A375 cell proliferation”.

Q: And the “Efficacy at inhibiting A375 cell proliferation relative to HCQ or CQ” value ([1]; plate assays)?
A: The value was “at least 100 times”.

Q: And the “Number of kinases with binding affinities of 25% or greater” value [2]?
A: The value was “ten”.

Q: And the “Efficacy at reducing U2OS viability relative to HCQ or CQ” value [3]?
A: The value was 13 times.

Q: What about the viability at 8 h, 10 µM [4] of the same molecule?
A: The viability at 8 h, 10 µM was 92%.

Q: What about the “Efficacy at inhibiting U2OS cell proliferation relative to HCQ or CQ” value [5] of the same molecule?
A: Its value is 21 times.

Q: What about the “Effect on U2OS cells” value ([5]; 0.1 μM) of the same molecule?
A: Its value is “reduced the proliferation rate”.

Q: And the “Efficacy at arresting growth and proliferation relative to HCQ and CQ” value ([5]; cancer cells that depend on autophagy but are not addicted)?
A: The value was 20 ×.

Q: What about the “Increase in fraction of yellow puncta” value [6] of the same molecule?
A: The value was 4 fold.

Q: And the “Puncta that were yellow in merged images” value [6]?
A: Its value is “at least 80%”.

Q: And the “Standing within the family for PIKFYVE binding” value [7]?
A: Its value is “the most potent member”.

Q: What about the Kd ([7]; mean of two independent titration curves) of the same molecule?
A: Its Kd is 1 nM.

Q: And the “Delay of p62 accumulation relative to LC3-II” value [8]?
A: Its value is “about 3 hours”.

Q: And the “Sensitivity of inhibition of lysosome fission relative to accumulation of autophagosomes” value [8]?
A: The value was “at least 5 fold”.

Q: And the “Concentration required for near maximum levels of LC3-II accumulation” value ([8]; 4 hrs)?
A: The value was 0.1 to 0.5 µM.

Q: What about the “Accumulation of LC3-II” value ([8]; U2OS cells) of the same molecule?
A: The value was “comparable increase in LC3-II”.

Q: And the “Time to accumulation of LC3-II and p62” value ([8]; U2OS cells)?
A: The value was at most 4 h.

Q: And the “Tumor xenograft formation by pretreated cells” value ([9]; A375 cells pretreated 8 hours with 10 μM, subcutaneous)?
A: Its value is “decidedly less efficient; also recorded: inhibited their ability to form a tumor”.

Q: What about the “Ill effects on mice” value ([9]; mouse weight) of the same molecule?
A: The value was “no ill effects on mice”.
